Experimental data: patent publication US9725442B2, “Heterocyclic derivative having PGD2 receptor antagonist activity” (Shionogi & Co., Ltd., priority 2011, dated 2017)
Where two headings read alike, the source gives them in different places.

Legend:
Human DP1 receptor = Human DP1 receptor (Homo sapiens (Human), UniProt Q13258); assay: Human DP1 inhibitory activity in DP1-expressing cell (PGD2-induced cAMP); type: cell-based; settings: category of cAMP IC50, human DP1 receptor expressing Jurkut cell
Human DP1 receptor, sequence (Q13258 whole entry): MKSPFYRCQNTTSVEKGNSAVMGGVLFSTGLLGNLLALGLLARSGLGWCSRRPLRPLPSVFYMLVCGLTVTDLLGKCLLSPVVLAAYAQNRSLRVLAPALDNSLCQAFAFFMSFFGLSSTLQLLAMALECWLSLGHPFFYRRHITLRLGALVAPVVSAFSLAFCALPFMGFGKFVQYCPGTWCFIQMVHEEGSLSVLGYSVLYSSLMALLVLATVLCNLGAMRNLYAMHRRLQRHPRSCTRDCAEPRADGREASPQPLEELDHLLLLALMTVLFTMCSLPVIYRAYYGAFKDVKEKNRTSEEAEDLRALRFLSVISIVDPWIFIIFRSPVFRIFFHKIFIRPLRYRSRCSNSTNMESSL
Description: Compounds were categorized as AA (cAMP is less than 100 nM) and A (cAMP is more than 100 nM and less than 5000 nM) as shown in Table 99 and 100.

CRTH2 = CRTH2 (Homo sapiens (Human), UniProt Q9Y5Y4); assay: CRTH2 receptor binding inhibitory activity ([3H]-PGD2 displacement, membranes of CRTH2-expressing K562 cell)
CRTH2, sequence (Q9Y5Y4 whole entry): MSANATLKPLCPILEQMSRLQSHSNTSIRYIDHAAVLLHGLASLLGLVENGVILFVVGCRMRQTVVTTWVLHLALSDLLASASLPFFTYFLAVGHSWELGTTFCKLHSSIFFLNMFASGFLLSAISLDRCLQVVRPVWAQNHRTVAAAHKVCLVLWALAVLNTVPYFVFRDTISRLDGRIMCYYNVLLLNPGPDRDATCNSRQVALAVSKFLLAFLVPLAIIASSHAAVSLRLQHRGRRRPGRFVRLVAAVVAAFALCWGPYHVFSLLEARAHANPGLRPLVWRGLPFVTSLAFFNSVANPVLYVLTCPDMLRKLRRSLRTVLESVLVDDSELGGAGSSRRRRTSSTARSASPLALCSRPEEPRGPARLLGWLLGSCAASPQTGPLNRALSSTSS
Description: Cell membrane was prepared from CRTH2-expressing K562 cell. The cell membrane (20 μg/well) was mixed with reaction buffer (50 mM Tris/HCl, pH 7.4, 10 mM MgCl2). Then, [^3H]-PGD2 was added to the mixture and incubated for 60 min at room temperature. […] Then, the mixture was filtrated with glass paper immediately. The filter paper was washed several times and radio activity on the filter was measured. Specific binding was defined as difference between total and non-specific binding (radio activity with 10 μM PGD2). Ki values for each compound were calculated from displacement curve.

[1] = CRTH2 receptor binding, [3H]-PGD2 displacement, membrane of CRTH2-expressing K562 cell, categorized AAAA/AAA, read-out: Ki
[2] = [3H]-PGD2 displacement, membrane of CRTH2-expressing K562 cell, read-out: Ki

| Compound | IC50 (Human DP1 receptor) [nM] | Ki (CRTH2; [1]) [nM] | Ki (CRTH2; [2]) [nM] | Ki (CRTH2) [nM] |
| --- | --- | --- | --- | --- |
| C=CC[C@@H]1CN(S(=O)(=O)c2ccc(OC(C)C)cc2)C[C@@H]1n1nc(CC(=O)O)c2ccc(F)cc21 [Compound I-32] | < 100 | < 100 | – | – |
| CCC[C@@H]1CN(S(=O)(=O)c2ccc(OC(C)C)cc2)C[C@@H]1n1nc(CC(=O)O)c2ccc(F)cc21 [Compound I-34] | < 100 | < 100 | 77 | – |
| CC(C)Oc1ccc(S(=O)(=O)N2C[C@@H](C)[C@@H](n3nc(CC(=O)O)c4ccccc43)C2)cc1 [Compound I-35] | < 100 | < 100 | – | – |
| CC(C)Oc1ccc(S(=O)(=O)N2C[C@@H](n3nc(CC(=O)O)c4ccc(F)cc43)[C@@H](C)C2)cc1 [Compound I-36] | 100 to 5000 | < 100 | – | – |
| C=C[C@@H]1CN(S(=O)(=O)c2ccc(OC(C)C)cc2)C[C@@H]1n1nc(CC(=O)O)c2ccc(F)cc21 [Compound I-38] | < 100 | < 100 | – | – |
| CC[C@@H]1CN(S(=O)(=O)c2ccc(OC(C)C)cc2)C[C@@H]1n1nc(CC(=O)O)c2ccc(F)cc21 [Compound I-39] | < 100 | < 100 | – | – |
| CC(C)Oc1ccc(S(=O)(=O)N2C[C@@H](CCO)[C@@H](n3nc(CC(=O)O)c4ccc(F)cc43)C2)cc1 [Compound I-40] | 100 to 5000 | < 100 | – | – |
| CC(C)Oc1ccc(S(=O)(=O)N2C[C@@H](C3CC3)[C@@H](n3nc(CC(=O)O)c4ccc(F)cc43)C2)cc1 [Compound I-41] | 100 to 5000 | < 100 | – | – |
| CC(C)Oc1ccc(S(=O)(=O)N2C[C@@H](CF)[C@@H](n3nc(CC(=O)O)c4ccc(F)cc43)C2)cc1 [Compound I-42] | 100 to 5000 | < 100 | – | – |
| C=C1CN(S(=O)(=O)c2ccc(OC(C)C)cc2)CC1n1nc(CC(=O)O)c2ccc(F)cc21 (stereo not drawn) [Compound I-43] | 100 to 5000 | < 100 | – | – |
| CC(C)Oc1ccc(S(=O)(=O)N2C[C@@H](CC(F)F)[C@@H](n3nc(CC(=O)O)c4ccc(F)cc43)C2)cc1 [Compound I-44] | 100 to 5000 | < 100 | – | – |
| CC(C)Oc1ccc(S(=O)(=O)N2C[C@@H](CCF)[C@@H](n3nc(CC(=O)O)c4ccc(F)cc43)C2)cc1 [Compound I-45] | 100 to 5000 | < 100 | – | – |
| CC(C)Oc1ccc(S(=O)(=O)N2C[C@H](n3nc(CC(=O)O)c4ccc(F)cc43)C[C@@H]2C)cc1 [Compound I-46] | < 100 | < 100 | – | – |
| C[C@@H]1CN(S(=O)(=O)c2ccc(F)cc2)C[C@@H]1n1nc(CC(=O)O)c2ccc(F)cc21 [Compound I-48] | 100 to 5000 | < 100 | – | – |
| C[C@@H]1CN(S(=O)(=O)c2ccc(C3CC3)cc2Cl)C[C@@H]1n1nc(CC(=O)O)c2ccc(F)cc21 [Compound I-53] | < 100 | < 100 | – | – |
| CC(C)Oc1ccc(S(=O)(=O)N2C[C@H](n3nc(CC(=O)O)c4ccc(F)cc43)CC23CC3)cc1 [Compound I-54] | 100 to 5000 | < 100 | – | – |
| CC(C)Oc1ccc(S(=O)(=O)N2C[C@H](n3nc(CC(=O)O)c4ccc(F)cc43)C[C@@H]2c2nc[nH]n2)cc1 [Compound I-55] | 100 to 5000 | 100 to 5000 | – | – |
| CC(C)Oc1ccc(S(=O)(=O)N2C[C@@H](C)[C@@H](n3nc(CC(=O)O)c4ccc(F)cc43)C2)c(C#N)c1 [Compound I-58] | < 100 | < 100 | – | – |
| CC(C)Oc1ccc(S(=O)(=O)N2C[C@@H](C)[C@@H](n3nc(CC(=O)O)c4cccc(F)c43)C2)cc1 [Compound I-59] | 100 to 5000 | < 100 | 23 | – |
| CC(C)Oc1ccc(S(=O)(=O)N2C[C@H](n3nc(CC(=O)O)c4cccc(F)c43)C[C@@H]2C)cc1 [Compound I-60] | < 100 | 100 to 5000 | – | – |
| CC(C)Oc1ccc(S(=O)(=O)N2C[C@@H](C)[C@@H](n3nc(CC(=O)O)c4cccc(Cl)c43)C2)cc1 [Compound I-61] | 100 to 5000 | < 100 | – | – |
| Cc1ccc2c(CC(=O)O)nn([C@H]3CN(S(=O)(=O)c4ccc(OC(C)C)cc4)C[C@H]3C)c2c1 [Compound I-62] | < 100 | < 100 | – | – |
| Cc1ccc2c(CC(=O)O)nn([C@H]3CN(S(=O)(=O)c4ccc(OC(C)C)cc4)C[C@H]3C)c2c1 [Compound I-63] | < 100 | – | 3.1 | – |

| Compound | IC50 (Human DP1 receptor) [nM] | Ki (CRTH2; [1]) [nM] | Ki (CRTH2; [2]) [nM] | Ki (CRTH2) [nM] |
| --- | --- | --- | --- | --- |
| CC(C)Oc1ccc(S(=O)(=O)N2C[C@@H](CO)[C@@H](n3nc(CC(=O)O)c4ccc(F)cc43)C2)cc1 [Compound I-64] | 100 to 5000 | < 100 | – | – |
| CON=C[C@@H]1CN(S(=O)(=O)c2ccc(OC(C)C)cc2)C[C@@H]1n1nc(CC(=O)O)c2ccc(F)cc21 [Compound I-65] | 100 to 5000 | < 100 | – | – |
| CC(C)Oc1ccc(S(=O)(=O)N2C[C@@H](C)[C@@H](n3nc(CC(=O)O)c4cc(F)c(F)cc43)C2)cc1 [Compound I-68] | < 100 | < 100 | – | – |
| CC(C)Oc1ccc(S(=O)(=O)N2C[C@@H](C)[C@@H](n3nc(CC(=O)O)c4cc(F)ccc43)C2)cc1 [Compound I-69] | < 100 | 100 to 5000 | – | – |
| CC(C)Oc1ccc(S(=O)(=O)N2CC[C@H](n3nc(CC(=O)O)c4ccc(F)cc43)C[C@H]2CO)cc1 [Compound I-72] | 100 to 5000 | 100 to 5000 | – | – |
| CC(C)Oc1ccc(S(=O)(=O)N2[C@H](C)C[C@H](n3nc(CC(=O)O)c4ccc(F)cc43)C[C@@H]2C)cc1 [Compound I-73] | < 100 | 100 to 5000 | – | – |
| CC(C)Oc1ccc(S(=O)(=O)N2CC[C@H](n3nc(CC(=O)O)c4ccc(F)cc43)C[C@@H]2C)cc1 [Compound I-76] | < 100 | 100 to 5000 | – | – |
| C[C@H]1C[C@@H](n2nc(CC(=O)O)c3ccc(F)cc32)CCN1S(=O)(=O)c1ccc(F)cc1 [Compound I-77] | 100 to 5000 | < 100 | 48 | – |
| CC(C)Oc1ccc(S(=O)(=O)N2CC[C@H](n3nc(CC(=O)O)c4ccc(F)cc43)C[C@H]2C)cc1 [Compound I-78] | 100 to 5000 | 100 to 5000 | – | – |
| C[C@@H]1C[C@@H](n2nc(CC(=O)O)c3ccc(F)cc32)CCN1S(=O)(=O)c1ccc(F)cc1 [Compound I-79] | 100 to 5000 | 100 to 5000 | – | – |
| O=C(O)Cc1nn([C@@H]2C[C@H]3CC[C@@H](C2)N3S(=O)(=O)c2ccc(F)cc2)c2cc(F)ccc12 [Compound I-80] | 100 to 5000 | – | – | 100 to 5000 |
| CC(C)Oc1ccc(S(=O)(=O)N2[C@@H]3CC[C@H]2C[C@H](n2nc(CC(=O)O)c4ccc(F)cc42)C3)cc1 [Compound I-81] | 100 to 5000 | – | – | 100 to 5000 |
| O=C(O)Cc1nn([C@H]2C[C@H]3CC[C@@H](C2)N3S(=O)(=O)c2ccc(F)cc2)c2cc(F)ccc12 [Compound I-82] | 100 to 5000 | – | – | 100 to 5000 |
| CC(C)Oc1ccc(S(=O)(=O)N2[C@@H]3CC[C@H]2C[C@@H](n2nc(CC(=O)O)c4ccc(F)cc42)C3)cc1 [Compound I-83] | < 100 | – | – | 100 to 5000 |
| CC(C)Oc1ccc(S(=O)(=O)N2C[C@H](n3nc(CC(=O)O)c4ccc(F)cc43)[C@@](C)(O)C2)cc1 [Compound I-84] | 100 to 5000 | < 100 | – | – |
| CC(C)Oc1ccc(S(=O)(=O)N2C[C@H](n3nc(CC(=O)O)c4ccccc43)[C@@](C)(O)C2)cc1 [Compound I-86] | 100 to 5000 | < 100 | – | – |
| Cc1ccc2c(CC(=O)O)nn([C@H]3CN(S(=O)(=O)c4ccc(OC(C)C)cc4)C[C@]3(C)O)c2c1 [Compound I-87] | 100 to 5000 | < 100 | – | – |
| CC(C)Oc1ccc(S(=O)(=O)N2C[C@H](n3nc(CC(=O)O)c4ccccc43)[C@](C)(F)C2)cc1 [Compound I-88] | < 100 | < 100 | – | – |
| CC(C)Oc1ccc(S(=O)(=O)N2C[C@H](n3nc(CC(=O)O)c4ccccc43)C[C@@H]2C(F)F)cc1 [Compound I-90] | < 100 | 100 to 5000 | – | – |
| CC(C)Oc1ccc(S(=O)(=O)N2C[C@H](n3nc(CC(=O)O)c4ccccc43)C[C@@H]2C)cc1 [Compound I-91] | < 100 | < 100 | – | – |
| Cc1ccc2c(CC(=O)O)nn([C@@H]3C[C@H](C(F)F)N(S(=O)(=O)c4ccc(OC(C)C)cc4)C3)c2c1 [Compound I-92] | < 100 | 100 to 5000 | – | – |
| CC(C)Oc1ccc(S(=O)(=O)N2C[C@H](n3nc(CC(=O)O)c4ccc(Cl)cc43)C[C@@H]2C(F)F)cc1 [Compound I-93] | < 100 | 100 to 5000 | – | – |
